The record followed here is patent US20050260126A1 (priority 2002, published 2005).

By IC50 is commonly meant the concentration that gives 50% inhibition.

Structures can show the parent of a compound that is named as a salt.

Series [1] can be described thus: in vivo. The conditions noted are these: male, Crj:CD1, mouse, iv.
In series [2] the test system is abnormal prion proteins (kuru plaques) in brain sections of GSS patients. The arrangement: species or system human. The settings on record: GSS patient brain sections, 10-200 μM in 50% ethanol, 30 minutes.
Series [3] deals with abnormal prion proteins in ScN2a cells with persistent infection of scrapie. Put plainly: cells. It is filed as cell-based, mouse. The settings on record: for IC50: Mus musculus, ScN2a, 96 h, read-out: Inhibitory effects on producing abnormal prion protein IC50; for Inhibitory effects on producing abnormal prion proteins (in words): ScN2a cells.
For series [4] the following is noted: Slc:ICR, mouse, not told, iv.
The test system of series [5] is ScN2a cells. The conditions noted are these: mouse.

In turn, `CCN(CC)c1ccc(/C=C/c2nc3ccccc3s2)cc1` [BF-124, 4-[2-(2-benzothiazolyl)-ethenyl]-N,N-diethyl-benzenamine hydrochloride] yielded an MTD in series [1] of at least 10 mg/kg. In addition, in series [2], the “Detection of spotted depositions of abnormal prion proteins (fluorescent signals)” value (from here on “Detection”) is given as “spotted fluorescent signals were observed”. Moreover, the IC50 in series [3] turned out to be 100 nM. In addition, in series [4], the “Permeability into the brain: content in Brain” value is reported as 2.4 % ID/g or ml and the “Permeability into the brain: content in Plasma” value is 1.6 % ID/g or ml. Moreover, the “Concentration of inhibiting cell proliferation TC” value in series [5] was determined as 100 µM.
Turning to `CCN(CC)c1ccc(/C=C/c2nc3ccccc3o2)cc1` [BF-125, 4-[2-(2-benzoxazolyl)ethenyl]-N,N-diethyl benzeneamine hydrochloride], the MTD in series [1] was at least 10 mg/kg. In series [2], the “Detection” value was “spotted fluorescent signals were observed”. For the same compound, in series [3], the IC50 is 100 nM. In addition, in series [4], the “Permeability into the brain: content in Brain” value is recorded as 3.0 % ID/g or ml and the “Permeability into the brain: content in Plasma” value is recorded as 2.5 % ID/g or ml. The “Concentration of inhibiting cell proliferation TC” value in series [5] was 50 µM.
In turn, `CCN(CC)c1ccc(/C=C/c2nc3ccccc3[nH]2)cc1` [BF-126, 4-[2-(2-benzimidazole)-ethenyl]-N,N-diethyl-benzenamine p-toluenesulfonate] had an MTD in series [1] of at least 10 mg/kg. The “Detection” value in series [2] is “spotted fluorescent signals were observed”. The IC50 in series [3] stood at 100 nM. Also, in series [4], the “Permeability into the brain: content in Brain” value is given as 7.2 % ID/g or ml and the “Permeability into the brain: content in Plasma” value is reported as 2.7 % ID/g or ml. The “Concentration of inhibiting cell proliferation TC” value in series [5] amounted to 25 µM.
Consider `CN(C)c1ccc(/C=C/c2nc3cc(F)ccc3o2)cc1` [BF-133, 2-(4-dimethylamino) styryl-5-fluoro-benzoxazole], for which, in series [2], the “Detection” value is “spotted fluorescent signals were observed”. The IC50 in series [3] was 5 nM. In series [4], the “Permeability into the brain: content in Brain” value is 5.5 % ID/g or ml and the “Permeability into the brain: content in Plasma” value is 1.3 % ID/g or ml. Also, the “Concentration of inhibiting cell proliferation TC” value in series [5] is 50 µM.
`CCN(CC)c1ccc(/C=C/c2cn3cc(F)ccc3n2)cc1` [BF-136, 2-[2-(4-diethylaminophenyl)ethenyl]-6-fluoroimidazo[1,2-a]-pyridine]: in series [2], the “Detection” value is reported as “spotted fluorescent signals were observed”. In addition, in series [3], the IC50 turned out to be 1 nM and the “Inhibitory effects on producing abnormal prion proteins (in words)” value (“Inhibitory effects” for short) was “highly inhibitory effects”. The “Concentration of inhibiting cell proliferation TC” value in series [5] was 10 µM.
Regarding `CN(C)c1ccc(/C=C/c2ccco2)cc1` [BF-142, 2-[2-(4-dimethylamino-phenyl)ethenyl]furan], the “Detection” value in series [2] was “spotted fluorescent signals were observed”. Further, the IC50 in series [3] came out at 10 nM. The “Concentration of inhibiting cell proliferation TC” value in series [5] amounted to 100 µM.
With `CN(C)c1ccc(/C=C/c2nc3ccc(F)cc3o2)cc1` [BF-148, 2-(4-dimethylamino) styryl-6-fluoro-benzoazole], the “Detection” value in series [2] was “spotted fluorescent signals were observed”. Also, in series [3], the IC50 worked out at 1 nM and the “Inhibitory effects” value was “highly inhibitory effects”. Besides, the “Concentration of inhibiting cell proliferation TC” value in series [5] stood at 10 µM.
`CN(C)c1ccc2cc(-c3nc4cc(F)ccc4o3)ccc2c1` [BF-151, 5-fluoro-2-(6-dimethyl-aminonaphthalen-2-yl)benzoxazole]: in series [2], the “Detection” value is reported as “spotted fluorescent signals were observed”. In addition, in series [3], the IC50 stood at 10 nM. For the same compound, the “Concentration of inhibiting cell proliferation TC” value in series [5] amounted to 100 µM.
As for `CN(C)c1ccc2cc(-c3nc4cc(F)ccc4s3)ccc2c1` [BF-154, 5-fluoro-2-(6-dimethyl-aminonaphthalen-2-yl)benzothiazole], the “Detection” value in series [2] was “spotted fluorescent signals were observed”. In addition, in series [4], the “Permeability into the brain: content in Brain” value was 1.1 % ID/g or ml and the “Permeability into the brain: content in Plasma” value is given as 1.4 % ID/g or ml.
`CN(C)c1ccc(/C=C/c2nc3cc(F)ccc3s2)cc1` [BF-162, 2-(4-dimethylamino) styryl-5-fluorobenzo-thiazole]: the “Detection” value in series [2] is listed as “spotted fluorescent signals were observed”. In addition, the IC50 in series [3] was 10 nM. In addition, the “Concentration of inhibiting cell proliferation TC” value in series [5] amounted to 100 µM.
`CCN(CC)c1ccc(/C=C/c2nc3cc(F)ccc3[nH]2)cc1` [BF-166, 2-(4-diethylamino)-styryl-5-fluoro-benzimidazole] gave an MTD in series [1] of under 10 mg/kg. The “Detection” value in series [2] is recorded as “spotted fluorescent signals were observed”. Moreover, the IC50 in series [3] stood at 10 nM. In addition, the “Concentration of inhibiting cell proliferation TC” value in series [5] came out at 10 µM.
In series [1], `CNc1ccc(/C=C/c2nc3ccc(OCCF)cc3o2)cc1` [BF-168, 6-(2-fluoroethoxy)-2-[2-(4-methylamino-phenyl)ethenyl]-benzoxazole] had an MTD of at least 10 mg/kg. The “Detection” value in series [2] was “spotted fluorescent signals were observed”. Moreover, in series [3], the IC50 turned out to be 1 nM and the “Inhibitory effects” value is on record as “highly inhibitory effects”. Also, the “Concentration of inhibiting cell proliferation TC” value in series [5] is 10 µM.
In series [1], `CNc1ccc(/C=C/c2nc3ccccc3o2)cc1` [BF-169, 2-(4-methylamino)-styrylbenzoxazole] yielded an MTD of at least 10 mg/kg. In series [2], the “Detection” value is given as “spotted fluorescent signals were observed”. For the same compound, the IC50 in series [3] is 10 nM. Moreover, the “Concentration of inhibiting cell proliferation TC” value in series [5] turned out to be 100 µM.
As to `Nc1ccc(C(=O)Nc2ccc(-c3nc4ccc(NC(=O)c5ccc(N)cc5)c(Cl)c4[nH]3)cc2)cc1` [Compound N-227, 4-[6-(N′-(4-amino-benzoyl)amino)-7-chlorobenzimidazol-2-yl]-N-(4-aminobenzoyl)aniline], the “Detection” value in series [2] is “spotted fluorescent signals were observed”. Further, in series [3], the IC50 was found to be 10 nM. The “Concentration of inhibiting cell proliferation TC” value in series [5] is 10 µM.
`CN(C)c1ccc(/C=C/c2nc3ccccc3s2)cc1` [Compound N-276, 4-[2-(2-benzothiazolyl)-ethenyl]-N,N-dimethyl-benzenamine]: in series [2], the “Detection” value is recorded as “spotted fluorescent signals were observed”. In addition, the IC50 in series [3] was found to be 5 nM. Also, the “Concentration of inhibiting cell proliferation TC” value in series [5] turned out to be 50 µM.
As to `CN(C)c1ccc(/C=C/c2nc3cc4c(cc3s2)OCO4)cc1` [Compound N-277, 4-[2-(5,6-methylene-dioxy-benzothiazol-2-yl)ethenyl]-N,N-di-methylbenzenamin], the “Detection” value in series [2] is “detection of spotted depositions of abnormal prion proteins”. Further, the IC50 in series [3] amounted to 50 nM. The “Concentration of inhibiting cell proliferation TC” value in series [5] is 50 µM.
Consider `CN(C)c1ccc(/C=C/c2nc3ccccc3o2)cc1` [Compound N-282, 2-(4-dimethylamino) styrylbenzoxazole], for which, in series [2], the “Detection” value is “spotted fluorescent signals were observed”. For the same compound, the IC50 in series [3] was 50 nM. In addition, in series [4], the “Permeability into the brain: content in Brain” value was 4.0 % ID/g or ml and the “Permeability into the brain: content in Plasma” value is given as 0.7 % ID/g or ml. Further, the “Concentration of inhibiting cell proliferation TC” value in series [5] was found to be 50 µM.
The corresponding values for `CN(C)c1ccc(-c2ccc3ccccc3n2)cc1` [Compound N-310, 2-[(4-dimethylamino)-phenyl]quinoline] are “spotted fluorescent signals were observed”, 5 nM, 15 % ID/g or ml, 1.0 % ID/g or ml and 50 µM.
In the case of `CCN(CC)c1ccc(-c2ccc3ccccc3n2)cc1` [Compound N-313, 2-[(4-diethylamino)-phenyl]quinoline], the “Detection” value in series [2] is listed as “spotted fluorescent signals were observed”. The IC50 in series [3] is 500 nM. In series [4], the “Permeability into the brain: content in Brain” value was 4.6 % ID/g or ml and the “Permeability into the brain: content in Plasma” value is recorded as 1.1 % ID/g or ml. Further, the “Concentration of inhibiting cell proliferation TC” value in series [5] came out at 50 µM.
Consider `Nc1ccc(/C=C/c2nc3ccccc3[nH]2)cc1` [Compound N-398, 4-[2-(2-benzimidazolyl)-ethenyl]benzenamine sulfate], for which the “Detection” value in series [2] is on record as “spotted fluorescent signals were observed”. Further, in series [3], the IC50 worked out at 5 nM. For the same compound, in series [5], the “Concentration of inhibiting cell proliferation TC” value is 50 µM.
The corresponding values for `COc1cc(/C=C/c2nc3ccccc3s2)cc(OC)c1` [Compound N-408, 2-[2-(3,5-dimethoxy-phenyl)ethenyl]-benzothiazole] are “spotted fluorescent signals were observed”, 10 nM and 100 µM.
Regarding `Cc1ccc2sc(/C=C/c3ccccc3C)nc2c1` [Compound N-440, 2-[2-(2-methylphenyl)-ethenyl]-5-methyl-benzothiazole], the “Detection” value in series [2] is listed as “spotted fluorescent signals were observed”. Moreover, the IC50 in series [3] came to 100 nM. Moreover, the “Concentration of inhibiting cell proliferation TC” value in series [5] was found to be 100 µM.
In the same order, the values of `Clc1ccccc1/C=C/c1nc2ccccc2s1` [Compound N-454, 2-[2-(2-chlorophenyl)ethenyl]benzothiazole] are “spotted fluorescent signals were observed”, 10 nM and 100 µM.
